Assay results: ChEMBL document CHEMBL5360581, “Discovery of a novel dual functional phenylpyrazole-styryl hybrid that induces apoptotic and autophagic cell death in bladder cancer cells” (Eur J Med Chem, 2023)
Active and inactive are the calls of the source. No cut-off for these calls is given here.

Columns and labels:
EJ-28 [1] = assay: Cytotoxicity against human EJ-28 cells assessed inhibition of cell growth incubated for 72 hrs by MTT assay; type: functional, cell-based; details: EJ-28, 72 h
EJ-28 [2] = assay: Induction of apoptosis in human EJ-28 cells assessed as upregulation of Bak expression incubated for 24 hrs by Western blotting analysis; type: functional, cell-based
EJ-28 [3] = assay: Induction of apoptosis in human EJ-28 cells at 1.25 to 10 uM by AnnexinV-FITC/propidium iodide staining based flow cytometry analysis; type: functional, cell-based; details: dose 1.25-10 µM, time 24-72 hrs, TDE = time-dependent effect
EJ-28 [4] = assay: Induction of autophagy in human EJ-28 cells assessed as upregulation of AKT expression at 5 to 12.5 uM incubated for 24 hrs by Western blot analysis; type: functional, cell-based; details: dose 5-12.5 µM
[5] = Toxicity in Zebrafish embryo assessed as mild bradycardia at 50 uM administered for 4 hrs post fertilization and measured after 3 days post fertilization; parameters: species or system Danio rerio; details: in vivo, 72 h, time 3 day
[6] = Selectivity index, ratio of IC50 for cytotoxicity against human NHDF cells to IC50 for cytotoxicity against human MCF7 cells; type: toxicity, cell-based; details: NHDF cells and MCF7 cells, read-out: Ratio IC50
[7] = Toxicity in Zebrafish embryo assessed as body curvature at 12.5 uM administered for 4 hrs post fertilization and measured after 3 days post fertilization; parameters: species or system Danio rerio; details: in vivo, 72 h, time 3 day
EJ-28 [8] = assay: Induction of cell cycle arrest in human EJ-28 cells assessed as accumulation of cells at S phase at 2.5 uM incubated for 48 hrs by propidium iodide staining based flow cytometry (reference value: 30%); type: functional
T-24 = assay: Induction of morphological changes in human T24 cells assessed as intracellular vacuolization at 7.5 uM incubated for 48 hrs by microscopic analysis; type: functional, cell-based
[9] = Cytotoxicity against human SV-HUC-1 cells assessed as reduction in cell viability at 7.5 uM incubated for 72 hrs by MTT assay; type: toxicity, cell-based; details: sv-huc-1, 72 h
EJ-28 [10] = assay: Induction of apoptosis in human EJ-28 cells assessed as upregulation of NOXA expression incubated for 24 hrs by Western blotting analysis; type: functional, cell-based
EJ-28 [11] = assay: Induction of apoptosis in human EJ-28 cells assessed as upregulation of phosphorylated […] level incubated for 24 to 72 hrs by Western blotting analysis; type: functional, cell-based; details: time 24-72 hrs
EJ-28 [12] = assay: Induction of autophagy in human EJ-28 cells assessed as upregulation of Atg7 expression at 5 to 12.5 uM incubated for 24 to 72 hrs by Western blot analysis; type: functional, cell-based; details: dose 5-12.5 µM, time 24-72 hrs
EJ-28 [13] = assay: Induction of autophagy in human EJ-28 cells assessed as upregulation of Atg3 expression at 5 to 12.5 uM incubated for 24 to 72 hrs by Western blot analysis; type: functional, cell-based; details: dose 5-12.5 µM, time 24-72 hrs
A549 = assay: Cytotoxicity against human A549 cells assessed inhibition of cell growth incubated for 72 hrs by MTT assay; type: functional, cell-based; details: A549, 72 h
[14] = Selectivity index, ratio of IC50 for cytotoxicity against human NHDF cells to IC50 for cytotoxicity against human EJ-28 cells
HT-1080 = assay: Antiproliferative activity against human HT-1080 cells assessed as reduction in cell viability at 20 uM measured for 72 hrs by MTT assay; type: functional, cell-based
[15] = Toxicity in Zebrafish embryo assessed as adverse phenotype at 12.5 to 50 uM administered for 4 hrs post fertilization and measured after 6 days post fertilization; parameters: species or system Danio rerio; details: in vivo, 144 h, dose 12.5-50 µM, time 6 day
EJ-28 [16] = assay: Induction of cell cycle arrest in human EJ-28 cells assessed as accumulation of cells at G2/M phase at 10 uM incubated for 48 hrs by propidium iodide staining based flow cytometry (reference value: 20%); type: functional
EJ-28 [17] = assay: Inhibition of colony formation in human EJ-28 cells at 1.25 uM incubated for 10 days by crystal violet staining based assay; type: functional, cell-based; details: time 10.0 day
EJ-28 [18] = assay: Antimigratory activity in human EJ-28 cells at 1.25 to 10 uM measured for 24 hrs by imaging analysis; type: functional, cell-based; details: dose 1.25-10 µM
EJ-28 [19] = assay: Induction of autophagy in human EJ-28 cells assessed as increase in green fluorescence intensity incubated for 24 hrs by flow cytometry analysis; type: functional, cell-based; details: dose 5-12.5 µM
MCF7 [20] = assay: Cytotoxicity against human MCF7 cells assessed inhibition of cell growth incubated for 72 hrs by MTT assay; type: functional, cell-based; details: MCF7, 72 h
EJ-28 [21] = assay: Induction of autophagy in human EJ-28 cells assessed as upregulation of Atg12 expression at 5 to 12.5 uM incubated for 24 to 72 hrs by Western blot analysis; type: functional, cell-based; details: dose 5-12.5 µM, time 24-72 hrs
EJ-28 [22] = assay: Induction of autophagy in human EJ-28 cells assessed as upregulation of Beclin-1 expression at 5 to 12.5 uM incubated for 24 to 72 hrs by Western blot analysis; type: functional, cell-based; details: dose 5-12.5 µM, time 24-72 hrs
EJ-28 [23] = assay: Induction of apoptosis in human EJ-28 cells assessed as upregulation of Bad expression incubated for 48 hrs by Western blotting analysis; type: functional, cell-based
[24] = Toxicity in Zebrafish embryo assessed as mild bradycardia at 12.5 to 25 uM administered for 4 hrs post fertilization and measured after 3 days post fertilization; parameters: species or system Danio rerio; details: in vivo, 72 h, dose 12.5-25 µM, time 3 day
EJ-28 [25] = assay: Induction of autophagy in human EJ-28 cells assessed as upregulation of AKT expression at 5 to 12.5 uM incubated for 48 to 72 hrs by Western blot analysis; type: functional, cell-based; details: dose 5-12.5 µM, time 48-72 hrs
EJ-28 [26] = assay: Anticancer activity against human EJ-28 cells cultured as 3D spheroids assessed as decrease in spheroid size at 5 to 20 uM measured upto 5 days by fluorescence microscopic analysis; type: functional, cell-based; details: dose 5-20 µM, time <= 5.0 day
EJ-28 [27] = assay: Induction of apoptosis in human EJ-28 cells assessed as upregulation of cleaved caspases-9 expression by Western blotting analysis; type: functional, cell-based; details: time 24-72 hrs
EJ-28 [28] = assay: Anticancer activity against human EJ-28 cells cultured as 3D spheroids assessed as decrease in spheroid volume at 5 to 20 uM measured upto 5 days by fluorescence microscopic analysis; type: functional, cell-based; details: dose 5-20 µM, time <= 5.0 day
[29] = Selectivity index, ratio of IC50 for cytotoxicity against human NHDF cells to IC50 for cytotoxicity against human HT-1080 cells
EJ-28 [30] = assay: Induction of apoptosis in human EJ-28 cells incubated for 24 to 72 hrs by AnnexinV-FITC/propidium iodide staining based flow cytometry analysis; type: functional, cell-based; details: dose 1.25-10 µM, time 24-72 hrs
EJ-28 [31] = assay: Induction of apoptosis in human EJ-28 cells assessed as upregulation of Bax expression incubated for 24 hrs by Western blotting analysis; type: functional, cell-based
[32] = Toxicity in Zebrafish embryo assessed as delay in hatching at 12.5 to 50 uM administered for 4 hrs post fertilization and measured after 72 hours post fertilization; parameters: species or system Danio rerio; details: in vivo, dose 12.5-50 µM
SW-620 = assay: Antiproliferative activity against human SW620 cells assessed as reduction in cell viability at 20 uM measured for 72 hrs by MTT assay; type: functional, cell-based
MCF7 [33] = assay: Antiproliferative activity against human MCF7 cells assessed as reduction in cell viability at 20 uM measured for 72 hrs by MTT assay; type: functional, cell-based
EJ-28 [34] = assay: Induction of cell cycle arrest in human EJ-28 cells assessed as accumulation of cells at S phase at 5 uM incubated for 48 hrs by propidium iodide staining based flow cytometry (reference value: 30%); type: functional

With `O=[N+]([O-])c1cccc(/C=C/c2cc(-c3cc(Cl)ccc3O)n(-c3ccccc3)n2)c1` the IC50 (EJ-28 [1]) was 2.8 µM, the Activity (EJ-28 [2]) was “Active” and the Activity (EJ-28 [3]) was “Tde”. The Activity (EJ-28 [4]) was “Active”, the Activity [5] was “Toxic” and the selectivity ratio [6] was 2.6. For the same molecule, the Activity [7] was “Non-Toxic”, the Activity (EJ-28 [8]) was 16% and the Activity (T-24) was “Active”. For the same molecule, the Activity [9] was “Non-Toxic”, the Activity (EJ-28 [10]) was “Active” and the Activity (EJ-28 [11]) was “Active”. The Activity (EJ-28 [12]) was “inactive”, the Activity (EJ-28 [13]) was “inactive” and the IC50 (A549) was 15.1 µM. For the same molecule, the “Ratio IC50” value [14] was 2.6, the Activity (HT-1080) was “Active” and the Activity [15] was “Non-Toxic”. For the same molecule, the Activity (EJ-28 [16]) was 17%, the inhibition (EJ-28 [17]) was “inactive” and the inhibition (EJ-28 [18]) was “Active”. The Activity (EJ-28 [19]) was “Dose-Dependent Effect”, the IC50 (MCF7 [20]) was 8.8 µM and the Activity (EJ-28 [21]) was “Active”. The Activity (EJ-28 [22]) was “inactive”, the Activity (EJ-28 [23]) was “Active” and the Activity [24] was “Non-Toxic”. The Activity (EJ-28 [25]) was “Active”, the Activity (EJ-28 [26]) was “Active” and the Activity (EJ-28 [27]) was “Dose-Dependent Effect”. For the same molecule, the Activity (EJ-28 [28]) was “Active”, the “Ratio IC50” value [29] was 2.6 and the Activity (EJ-28 [30]) was “Dose-Dependent Effect”. For the same molecule, the Activity (EJ-28 [31]) was “inactive”, the Activity [32] was “Non-Toxic” and the Activity (SW-620) was “Active”. For the same molecule, the Activity (MCF7 [33]) was “Active” and the Activity (EJ-28 [34]) was 21%.
